Experimental data as given in PubChem BioAssay AID2060360 (Molecular Pharmacology Branch, DTP, NCI, 2025).

Test system: 282377-053-R-J1-PDC tumor spheroids, viability
Test: Anticancer human tumor 282377-053-R-J1-PDC patient-derived colon adenocarcinoma cell line growth inhibition [TAK]
Conditions: spheroids with HUVEC and MSC; for IC50: curve of first compound; for viability, T/C: stronger effect = lower value
Procedure, shortened: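 Tumor cells were grown as spheroids with HUVEC and hMSC (60:25:15) and treated with targeted agents combined with TAK-243 or ipatasertib. Drugs were tested in half-log steps down from near the clinical Cmax, or from 10 microM where Cmax was unknown.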
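Further: spheroids exposed to drugs for seven days before readout.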

For `COc1c(OCCCN2CCOCC2)ccc2c3n(c(=NC(=O)c4cnc(N)nc4)nc12)CCN3` + CC(C)NCC(C(=O)N1CCN(c2ncnc3c2C(C)CC3O)CC1)c1ccc(Cl)cc1, the IC50 (second compound 0.3 µM) was > 1000 nM, the IC50 (second compound 0.949 µM) was 674 nM and the IC50 (second compound 3 µM) was 489 nM. The IC50 (second compound 9.49 µM) was 182 nM, the IC50 (second compound 30 µM) was 32.3 nM and the viability, T/C (second compound 0.3 µM, first compound 0.00316 µM) was 95%. It also gave a viability, T/C (second compound 0.3 µM, first compound 0.01 µM) of 96%, a viability, T/C (second compound 0.3 µM, first compound 0.0316 µM) of 91.8% and a viability, T/C (second compound 0.3 µM, first compound 0.1 µM) of 91.1%. For the same compound, the viability, T/C (second compound 0.3 µM, first compound 0.316 µM) was 87.9%, the viability, T/C (second compound 0.3 µM, first compound 1 µM) was 64.3% and the viability, T/C (second compound 0.949 µM, first compound 0.00316 µM) was 94.9%. For the same compound, the viability, T/C (second compound 0.949 µM, first compound 0.01 µM) was 87.7%, the viability, T/C (second compound 0.949 µM, first compound 0.0316 µM) was 87.6% and the viability, T/C (second compound 0.949 µM, first compound 0.1 µM) was 81.3%. The viability, T/C (second compound 0.949 µM, first compound 0.316 µM) was 82.7%, the viability, T/C (second compound 0.949 µM, first compound 1 µM) was 33.2% and the viability, T/C (second compound 3 µM, first compound 0.00316 µM) was 86.1%. The viability, T/C (second compound 3 µM, first compound 0.01 µM) was 88.3%, the viability, T/C (second compound 3 µM, first compound 0.0316 µM) was 80.5% and the viability, T/C (second compound 3 µM, first compound 0.1 µM) was 78.4%. For the same compound, the viability, T/C (second compound 3 µM, first compound 0.316 µM) was 73.4%, the viability, T/C (second compound 3 µM, first compound 1 µM) was 13.6% and the viability, T/C (second compound 9.49 µM, first compound 0.00316 µM) was 82.3%. The viability, T/C (second compound 9.49 µM, first compound 0.01 µM) was 79.1%, the viability, T/C (second compound 9.49 µM, first compound 0.0316 µM) was 73.2% and the viability, T/C (second compound 9.49 µM, first compound 0.1 µM) was 66.8%. The viability, T/C (second compound 9.49 µM, first compound 0.316 µM) was 35.4%, the viability, T/C (second compound 9.49 µM, first compound 1 µM) was 11.4% and the viability, T/C (second compound 30 µM, first compound 0.00316 µM) was 66.4%. It also gave a viability, T/C (second compound 30 µM, first compound 0.01 µM) of 65.8%, a viability, T/C (second compound 30 µM, first compound 0.0316 µM) of 48% and a viability, T/C (second compound 30 µM, first compound 0.1 µM) of 29.7%. It also gave a viability, T/C (second compound 30 µM, first compound 0.316 µM) of 8.22% and a viability, T/C (second compound 30 µM, first compound 1 µM) of 4.24%.
